# The supplement of paper PMC10307832
# Experiments:
# Assay in all cases: relative viability (nuclei count vs DMSO), 5 days (fraction); higher = more cells survive
# Doxorubicin + AZD7762 = compound: COc1cccc2c1C(=O)c1c(O)c3c(c(O)c1C2=O)C[C@@](O)(C(=O)CO)C[C@@H]3O[C@H]1C[C@H](N)[C@H](O)[C@H](C)O1 [Doxorubicin] + NC(=O)Nc1cc(-c2cccc(F)c2)sc1C(=O)N[C@H]1CCCNC1 [AZD7762] (partner 0.2 µM)
# How it was run: (§1)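 Lung cancer cell lines in 1536-well plates got either a single drug or a fixed anchor-drug dose together with five library-drug doses (not always all listed) in √10 steps, by pin tool, on the day after seeding. Nuclei were counted after 5 days, and relative viability is the treated-to-vehicle ratio of nuclei counts. Values are medians of duplicate plates.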
# Doxorubicin + Lapatinib = compound: COc1cccc2c1C(=O)c1c(O)c3c(c(O)c1C2=O)C[C@@](O)(C(=O)CO)C[C@@H]3O[C@H]1C[C@H](N)[C@H](O)[C@H](C)O1 [Doxorubicin] + CS(=O)(=O)CCNCc1ccc(-c2ccc3ncnc(Nc4ccc(OCc5cccc(F)c5)c(Cl)c4)c3c2)o1 [Lapatinib] (partner 2 µM)
# How it was run: as §1
# BAY61-3606 + OSI-027 = compound: COC1=C(C=C(C=C1)C2=CC3=NC=CN3C(=N2)NC4=C(C=CC=N4)C(=O)N)OC [BAY61-3606] + COc1cccc2cc(-c3nc([C@H]4CC[C@H](C(=O)O)CC4)n4ncnc(N)c34)[nH]c12 [OSI-027] (partner 0.5 µM)
# How it was run: as §1
# Doxorubicin + Luminespib = compound: COc1cccc2c1C(=O)c1c(O)c3c(c(O)c1C2=O)C[C@@](O)(C(=O)CO)C[C@@H]3O[C@H]1C[C@H](N)[C@H](O)[C@H](C)O1 [Doxorubicin] + CCNC(=O)c1noc(-c2cc(C(C)C)c(O)cc2O)c1-c1ccc(CN2CCOCC2)cc1 [Luminespib] (partner 0.01 µM)
# How it was run: as §1
Cell Line,relative viability (Doxorubicin + AZD7762; first compound 0.001 µM),relative viability (Doxorubicin + AZD7762; first compound 0.003162 µM),relative viability (Doxorubicin + AZD7762; first compound 0.03162 µM),relative viability (Doxorubicin + AZD7762; first compound 0.1 µM),relative viability (Doxorubicin + Lapatinib; first compound 0.001 µM),relative viability (Doxorubicin + Lapatinib; first compound 0.003162 µM),relative viability (Doxorubicin + Lapatinib; first compound 0.01 µM),relative viability (Doxorubicin + Lapatinib; first compound 0.03162 µM),relative viability (Doxorubicin + Lapatinib; first compound 0.1 µM),relative viability (BAY61-3606 + OSI-027; first compound 0.02 µM),relative viability (BAY61-3606 + OSI-027; first compound 0.06325 µM),relative viability (BAY61-3606 + OSI-027; first compound 0.2 µM),relative viability (BAY61-3606 + OSI-027; first compound 0.6325 µM),relative viability (BAY61-3606 + OSI-027; first compound 2 µM),relative viability (Doxorubicin + Luminespib; first compound 0.001 µM),relative viability (Doxorubicin + Luminespib; first compound 0.003162 µM),relative viability (Doxorubicin + Luminespib; first compound 0.01 µM),relative viability (Doxorubicin + Luminespib; first compound 0.03162 µM),relative viability (Doxorubicin + Luminespib; first compound 0.1 µM),relative viability (Doxorubicin + AZD7762; first compound 0.01 µM)
NCI-H727,0.675,0.575,0.497,0.573,0.76,0.784,0.792,0.666,0.681,0.604,0.559,0.71,0.688,0.513,0.286,0.348,0.225,0.336,0.308,–
A-427,0.733,0.857,0.463,0.482,1.1,0.985,1.06,1.04,1.02,0.538,0.44,0.479,0.542,0.476,0.803,0.784,0.866,0.656,0.64,0.713
EMC-BAC-2,1.11,1.03,0.636,0.691,0.943,0.956,0.801,0.415,0.269,0.391,0.391,0.356,0.363,0.318,1.25,1.18,1.04,0.551,0.425,0.89
NCI-H647,0.352,0.417,0.19,0.0766,1.02,1.24,0.643,0.119,0.0876,0.648,0.567,0.691,0.423,0.277,0.117,0.13,0.11,0.185,0.149,0.466
LCLC-97TM1,0.235,0.218,0.244,0.211,1.13,0.917,0.847,0.63,0.579,0.515,0.608,0.581,0.423,0.392,0.718,0.818,0.677,0.772,0.834,0.303
HOP-62,0.533,0.54,0.527,0.397,0.811,1.15,1.02,1.1,0.853,0.859,0.838,0.774,0.786,0.714,0.906,0.942,0.896,0.958,0.931,0.519
NCI-H1437,1.11,0.994,1.09,0.877,0.772,0.836,0.61,0.278,0.209,0.941,0.924,0.921,0.936,0.784,1.01,1.17,1.12,0.832,0.553,1.04
NCI-H1755,0.523,0.489,0.485,0.491,0.962,1.05,0.991,1.07,0.998,0.743,0.657,0.701,0.712,0.671,0.361,0.273,0.597,0.381,0.323,0.393
HARA,1.09,0.25,0.267,0.377,0.599,0.591,0.893,0.62,0.659,0.554,0.463,0.513,0.536,0.311,0.644,1.1,0.696,0.641,0.325,0.38
LCLC-103H,0.781,0.815,0.767,0.826,–,–,–,–,–,0.472,0.434,0.478,0.425,0.439,0.941,1.06,0.949,0.931,0.864,0.75
NCI-H1563,–,–,–,–,0.721,0.779,0.661,0.545,0.549,0.742,0.764,0.699,0.71,0.676,0.486,0.549,0.536,0.528,0.491,–
NCI-H441,1.05,1.07,0.853,0.912,–,–,–,–,–,0.587,0.713,0.428,0.557,0.313,–,0.312,0.358,0.321,0.293,0.954
Calu-6,–,–,–,–,0.959,1.05,0.678,0.261,0.221,–,–,–,–,–,–,–,–,–,–,–
EBC-1,–,–,–,–,0.236,0.21,0.22,0.195,0.181,–,–,–,–,–,–,–,–,–,–,–
NCI-H1623,–,–,–,–,–,–,–,–,–,0.417,0.427,0.504,0.418,0.412,0.394,0.478,0.508,0.374,0.487,–
NCI-H1648,0.762,0.524,0.843,0.654,–,–,–,–,–,0.219,0.257,0.263,0.229,0.217,–,–,–,–,–,0.741
NCI-H522,0.7,0.745,0.656,0.918,–,–,–,–,–,0.653,0.646,0.686,0.717,0.738,–,1.21,1.12,0.885,1.15,0.967
